Assay results reported in the OPERA property sets (Mansouri et al. 2018).

Molecule `CCCc1ccccc1C` has a logP of 4.5.
With `CCC(C)c1ccccc1` (stereo unspecified) the logP was 4.57.
For `CCc1cc(C)ccc1C`, the logP was 4.43.
`Cc1ccccc1C(C)C` showed a logP of 4.38.
With `CCc1ccc(CC)cc1` the logP was 4.58.
Molecule `CCc1ccc(C)cc1C` has a logP of 4.47.
In the case of `CCCCCCCCCc1ccccc1`, the logP is reported as 7.11.
`CCc1c(C)cccc1C` gave a logP of 4.28.
In the case of `CCCc1cccc(C)c1`, the logP is reported as 4.67.
Work on `CCc1cccc(CC)c1` yielded a logP of 4.57.
`CCCc1ccc(C)cc1` gave a logP of 4.6.
With `CCc1cccc(C)c1` the logP was 3.98.
Work on `Cc1cccc(C(C)C)c1` yielded a logP of 4.5.
In the case of `CCc1cc(C)cc(C)c1`, the logP is reported as 4.55.
With `CCc1cccc(C)c1C` the logP was 4.34.
With `CCc1ccc(C)c(C)c1` the logP was 4.5.
